Laboratory results as given in patent publication US10202382B2 (Purdue Pharma L.P., priority 2014, dated 2019).

Molecular target: T1, μ-opioid receptor (Homo sapiens, UniProt P35372)
T1 construct: expressed in transfected cells; host or cells: HEK-293
Test: μ-opioid receptor [35S]GTPγS functional assay
Format: biochemical
Conditions: HEK-293 cells; for Emax: maximal effect relative to DAMGO
Description: [^35S]GTPγS functional assays were conducted using freshly thawed μ-receptor membranes prepared in-house from a cell line expressing recombinant μ opioid receptor in a HEK-293, CHO or U-2 OS cell background, or purchased from a commercial source (Perkin Elmer, Shelton, Conn.; or DiscovRx, Fremont, Calif.). Assay reactions were prepared by sequentially adding the following reagents to binding buffer (100 mM NaCl, 10 mM MgCl2, 20 mM HEPES, pH 7.4) on ice (final concentrations indicated): membrane protein (0.026 mg/mL), saponin ([…]), GDP ([…]) and [^35S]GTPγS (0.20 nM; Perkin Elmer, Shelton, Conn.). The prepared membrane solution (190 μl/well) was transferred to 96-shallow well polypropylene plates containing 10 μl of 20× concentrated stock solutions of the agonist [D-Ala^2, N-methyl-Phe^4 Gly-ol^5]-enkephalin (DAMGO) prepared in dimethyl sulfoxide (DMSO). Plates were incubated for 30 min at about 25° C. with shaking. Reactions were terminated by rapid filtration onto 96-well Unifilter GF/B filter plates (Perkin Elmer, Shelton, Conn.) using a 96-well tissue harvester (Perkin Elmer, Shelton, Conn.) followed by three filtration washes with 200 μl of ice-cold wash buffer (10 mM NaH2PO4, 10 mM Na2HPO4, pH 7.4). Filter plates were subsequently dried at 50° C. for 2-3 hours. BetaScint scintillation cocktail (Perkin Elmer, Shelton, Conn.) was added (50 μl/well) and plates were counted using a Packard Top-Count for 1 min/well. Data were analyzed using the sigmoidal dose-response curve fitting functions in GraphPad PRISM v. 3.0, or an in-house function for non-linear, sigmoidal dose-response curve-fitting.
μ GTP EC50 is the concentration of a compound providing 50% of the maximal response for the compound at a μ-opioid receptor.
μ GTP Emax (%) is the maximal effect elicited by a compound relative to the effect elicited by DAMGO, a standard agonist. Generally, the μ GTP Emax (%) value measures the efficacy of a compound to treat or prevent pain or other Conditions.
In TABLE 1, activity response of certain Compounds of the Invention to the μ-opioid receptors was determined as described above for functional assays using HEK-293 cells.

[1] = membranes with recombinant μ opioid receptor
[2] = cell prints μM under an nM head

T1 sequence (P35372 whole entry, species assumed): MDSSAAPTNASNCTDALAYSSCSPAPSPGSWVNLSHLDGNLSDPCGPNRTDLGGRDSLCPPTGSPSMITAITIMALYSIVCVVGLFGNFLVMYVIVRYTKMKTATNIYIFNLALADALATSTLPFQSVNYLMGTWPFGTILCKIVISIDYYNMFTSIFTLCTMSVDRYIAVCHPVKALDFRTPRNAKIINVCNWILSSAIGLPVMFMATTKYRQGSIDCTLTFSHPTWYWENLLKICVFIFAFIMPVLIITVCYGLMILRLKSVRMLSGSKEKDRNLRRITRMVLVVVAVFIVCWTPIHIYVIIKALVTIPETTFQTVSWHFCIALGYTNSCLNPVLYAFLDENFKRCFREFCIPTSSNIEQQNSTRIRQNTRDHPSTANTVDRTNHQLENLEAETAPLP

Row | SMILES | Emax | EC50 [1] | EC50 [2]
1 | CC(C)C(=O)N1CC[C@]23CCN(C)[C@H](Cc4ccc(O)cc42)[C@@H]3C1 [Compound 30, 1-((4aS,5R,10bS)-9-hydroxy-13-methyl-1,2,4,4a,5,6-hexahydro-3H-5,10b-(epiminoethano)benzo[f]isoquinolin-3-yl)-2-methylpropan-1-one] | 37.2 ± 1.18% | 0.733 ± 0.0407 µM | –
2 | CC(=O)N1CC[C@]23CCN(C)[C@H](Cc4ccc(O)cc42)[C@@H]3C1 [Compound 29, 1-((4aS,5R,10bS)-9-hydroxy-13-methyl-1,2,4,4a,5,6-hexahydro-3H-5,10b-(epiminoethano)benzo[f]isoquinolin-3-yl)ethan-1-one] | 64.7 ± 4.63% | 0.298 ± 0.0278 µM | –
3 | CN1CC[C@]23CCNC[C@H]2[C@H]1Cc1ccc(O)cc13 [Compound 25, (4aS,5R,10bR)-13-methyl-2,3,4,4a,5,6-hexahydro-1H-5,10b-(epiminoethano)benzo[f]isoquinolin-9-ol] | 43.7 ± 1.45% | 8.36 ± 0.929 µM | –
4 | COc1ccc2c(c1)[C@]13CCN(C)[C@H](C2)[C@@H]1CNC(=O)C3 [Compound 11, (4aS,5R,10bS)-9-methoxy-13-methyl-4,4a,5,6-tetrahydro-1H-5,10b-(epiminoethano)benzo[f]isoquinolin-2(3H)-one] | 57.8 ± 2.68% | – | > 20 µM
5 | CN1CC[C@]23CC(=O)N(CC4CC4)C[C@H]2[C@H]1Cc1ccc(O)cc13 [Compound 26] | 67.7 ± 1.2% | 0.881 ± 0.183 µM | –
6 | CN1CC[C@]23CCN(CC4CC4)C[C@H]2[C@H]1Cc1ccc(O)cc13 [Compound 27, (4aS,5R,10bR)-3-(cyclopropylmethyl)-13-methyl-2,3,4,4a,5,6-hexahydro-1H-5,10b-(epiminoethano)benzo[f]isoquinolin-9-ol] | 44.4 ± 2.5% | 14 ± 1.94 µM | –
7 | CN1CC[C@]23CC(=O)N(Cc4ccccc4)C[C@H]2[C@H]1Cc1ccc(O)cc13 [Compound 28] | 58.7 ± 4.84% | 2.73 ± 0.392 µM | –
8 | COc1ccc(CN2C[C@H]3[C@H]4Cc5ccc(OC)cc5[C@@]3(CCN4C)CC2=O)cc1 [Compound 8, (4aS,5R,10bS)-9-methoxy-3-(4-methoxybenzyl)-13-methyl-4,4a,5,6-tetrahydro-1H-5,10b-(epiminoethano)benzo[f]isoquinolin-2(3H)-one] | 70.3 ± 1.67% | – | > 20 µM
9 | CN1CC[C@]23CCN(C(=O)C4CC4)C[C@H]2[C@H]1Cc1ccc(O)cc13 [Compound 31, Cyclopropyl ((4aS,5R,10bS)-9-hydroxy-13-methyl-1,2,4,4a,5,6-hexahydro-3H-5,10b-(epiminoethano)benzo[f]isoquinolin-3-yl)methanone] | 49 ± 1.53% | 0.725 ± 0.0265 µM | –
10 | COc1ccc(CN2CC[C@]34CCN(C)[C@H](Cc5ccc(OC)cc53)[C@@H]4C2)cc1 [Compound 9, (4aS,5R,10bR)-9-methoxy-3-(4-methoxybenzyl)-13-methyl-2,3,4,4a,5,6-hexahydro-1H-5,10b-(epiminoethano)benzo[f]isoquinoline] | 28.7 ± 1.45% | – | > 20 µM
11 | CN1CC[C@]23CCN(C(=O)Nc4ccccc4)C[C@H]2[C@H]1Cc1ccc(O)cc13 [Compound 33, (4aS,5R,10bS)-9-hydroxy-13-methyl-N-phenyl-1,2,4,4a,5,6-hexahydro-3H-5,10b-(epiminoethano)benzo[f]isoquinoline-3-carboxamide] | 54.7 ± 8.35% | 0.152 ± 0.00519 µM | –
12 | CN1CC[C@]23CCN(Cc4ccc(O)cc4)C[C@H]2[C@H]1Cc1ccc(O)cc13 [Compound 23, (4aS,5R,10bR)-3-(4-hydroxybenzyl)-13-methyl-2,3,4,4a,5,6-hexahydro-1H-5,10b-(epiminoethano)benzo[f]isoquinolin-9-ol] | 51.7 ± 2.85% | 1.59 ± 0.0616 µM | –
13 | CN1CC[C@]23CCN(C)[C@H](Cc4ccc(O)cc42)[C@@H]3C1 [Compound 32, (4aS,5R,10bR)-3,13-dimethyl-2,3,4,4a,5,6-hexahydro-1H-5,10b-(epiminoethano)benzo[f]isoquinolin-9-ol] | 71.7 ± 3.18% | 1.07 ± 0.14 µM | –
14 | CN1CC[C@]23CC(=O)NC[C@H]2[C@H]1Cc1ccc(O)cc13 [Compound 24, (4aS,5R,10bS)-9-hydroxy-13-methyl-4,4a,5,6-tetrahydro-1H-5,10b-(epiminoethano)benzo[f]isoquinolin-2(3H)-one] | 52 ± 2.08% | 1.38 ± 0.104 µM | –
